Assay results reported in paper PMC6440969, “Functional and structural similarities of D7 proteins in the independently-evolved salivary secretions of sand flies and mosquitoes” (Scientific Reports, 2019).
Read-outs that look alike come from different tables or passages of the source.

Key:
P. duboscqi ABI15936 = target: T1, P. duboscqi ABI15936 (Phlebotomus duboscqi, UniProt Q06KA2); test: biochemical; format: binding; conditions: for binding of biogenic amines: ITC (Fig. S1); for affinities (1/Ka): range printed for both proteins (AGE83092 and ABI15936) together
T1 construct: made in house; host or cells: E. coli BL21 (DE3) pLysS
Description: (§1) For cysteinyl leukotriene experiments, the calorimeter cell was filled with P. papatasi D7 protein AGE83092 (A–C) or P. duboscqi ABI15936 (E–G) at 2 μM in Tris-buffered saline. The syringe contained 20 μM LTC4 (A,E), LTD4 (B,F) and LTE4 (C,G) in the same buffer. Injections (10 µL) were spaced at 300 s intervals. […] The syringe concentration was 50 µM AGE83092 and 100 µM for ABI15936. Heats were recorded on a VP-ITC MicroCalorimeter and data were fit using a single binding site model on the MicroCal software package (Origin 7) for calculation of thermodynamic parameters. Titration curves are representative of at least 3 measurements.
Figure 7 Binding pocket interactions in ABI15936. (A) Stereoview of bound Triton X-100 with weighted omit electron density (Fo-Fc) contoured at 3 σ covering the ligand. Carbon atoms are colored green and oxygen atoms are colored red (B). […] In the protein, carbon is colored light grey, oxygen is colored red and nitrogen is colored blue. […] The refined position is shown in green and the rotated position in white.
(§2) Proteins were diluted in 20 mM tris pH 7.4, 150 mM NaCl and degassed. […] These were sonicated for 10 minutes in a water bath sonicator and degassed before use. Biogenic amines were dissolved in the same buffer and degassed. Heats were measured with a MicroCal VP-ITC calorimeter (Malvern, United Kingdom) using 10 μl ligand injections over periods of 20 seconds with 300 seconds spacing the injections. The measured heats were integrated and fit to a single-site binding model using the MicroCal Origin software.

AeD7 = test system: AeD7; set-up: method as in PMID 19234127, PMID 21152418; conditions: cited from earlier work
AnStD7L1 = conditions: cited from earlier work
[1] = target: T2, P. papatasi D7 protein AGE83092 (Phlebotomus papatasi, UniProt M1JMQ7); test: biochemical; format: binding
T2 construct: made in house; host or cells: E. coli BL21 (DE3) pLysS
Description: as §1, §2

[2] = ITC, single binding site model, Tris-buffered saline, protein 2 μM (10 µM for U46619), protein prepared with Triton X-100
[3] = ITC, single binding site model, protein prepared with Triton X-100
[4] = ITC, protein prepared without Triton X-100

T1 sequence (Q06KA2 20-249 limits assumed): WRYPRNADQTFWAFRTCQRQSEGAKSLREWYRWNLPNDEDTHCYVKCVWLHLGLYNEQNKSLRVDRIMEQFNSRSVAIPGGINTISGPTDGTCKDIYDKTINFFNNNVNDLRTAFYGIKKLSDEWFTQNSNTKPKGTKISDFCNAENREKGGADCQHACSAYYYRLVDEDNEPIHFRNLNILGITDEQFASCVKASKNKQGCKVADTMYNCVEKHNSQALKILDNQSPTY
T2 sequence (M1JMQ7 20-254 limits assumed): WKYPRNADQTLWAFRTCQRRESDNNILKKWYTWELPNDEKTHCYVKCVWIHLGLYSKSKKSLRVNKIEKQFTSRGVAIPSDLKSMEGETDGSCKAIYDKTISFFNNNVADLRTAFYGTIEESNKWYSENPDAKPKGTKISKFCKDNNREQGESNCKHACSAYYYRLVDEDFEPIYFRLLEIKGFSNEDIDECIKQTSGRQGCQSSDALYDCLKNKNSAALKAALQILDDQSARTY

Row | Structure (SMILES) | Ka (P. duboscqi ABI15936; [2]) | ΔH (P. duboscqi ABI15936; [3]) | Ka [1] | binding of biogenic amines (P. duboscqi ABI15936) | ΔH ([1]; ITC, single binding site model) | affinities (1/Ka) (P. duboscqi ABI15936; ITC) | also measured
1 | CCCCC[C@H](O)/C=C/[C@@H]1[C@@H](C/C=C\CCCC(=O)O)[C@H]2CO[C@@H]1C2 [U46619] | 780000 M⁻¹ | -11.5 kcal/mol | 1.33e+06 M⁻¹ |  |  |  | Kd (P. duboscqi ABI15936; ITC, read-out: affinity constant): ~1300 nM; affinity for AeD7 (AeD7): no affinity; binding to AnStD7L1 (AnStD7L1): bound; ΔH [1]: -8.5 kcal/mol; Kd ([1]; read-out: affinity constant): ~750 nM
2 | NCCc1c[nH]cn1 [histamine] |  |  |  | did not bind |  |  | binding of biogenic amines [1]: did not bind
3 | CCCCC/C=C\C\C=C/C=C/C=C/[C@@H](SC[C@H](N)C(=O)NCC(=O)O)[C@@H](O)CCCC(=O)O [LTD4] |  | -8.9 kcal/mol |  |  | -10.2 kcal/mol |  | Kd (P. duboscqi ABI15936; Ka): 4.17 nM; Kd (P. duboscqi ABI15936; affinities (1/Ka)): 2 to 6 nM; Kd ([1]; Ka): 1.75 nM; Kd ([1]; affinities (1/Ka)): 2 to 6 nM
4 | NCCc1c[nH]c2ccc(O)cc12 [serotonin] |  |  |  | did not bind |  |  | binding of biogenic amines ([1]; ITC (Fig. S1)): did not bind
5 | CCCCC/C=C\C\C=C/C=C/C=C/[C@@H](SC[C@H](N)C(=O)O)[C@@H](O)CCCC(=O)O [LTE4] | 3.4e+07 M⁻¹ | -7.0 kcal/mol | 6.3e+07 M⁻¹ |  | -11.3 kcal/mol | 16 to 29 nM | 
6 | CCCCC/C=C\C\C=C/C=C/C=C/[C@@H](SC[C@H](NC(=O)CC[C@H](N)C(=O)O)C(=O)NCC(=O)O)[C@@H](O)CCCC(=O)O [LTC4] | 3.1e+08 M⁻¹ | -8.6 kcal/mol | 1.7e+08 M⁻¹ |  | -10.3 kcal/mol | 2 to 6 nM | Ka (P. duboscqi ABI15936; [4]): 2.2e+08 M⁻¹; ΔH (P. duboscqi ABI15936; [4]): -10.0 kcal/mol; affinities (1/Ka) [1]: 2 to 6 nM
